Measurements published in PubChem BioAssay AID330 (DTP/NCI, 2004).
Several values for one entry are separate records, joined by “and”; a condition that tells them apart may be missing. Equal values may be shown once. Toxic doses and inconclusive results are not listed. Rule for the calls: active = survival T/C of 150% or more; inactive = T/C below 125% in these data.

Test system: P388 leukemia ip, CD2F1 mice, survival T/C
Assay: NCI In Vivo Anticancer Drug Screen. Data for tumor model P388 Leukemia (intraperitoneal) in CD2F1 (CDF1) mice
Details: endpoint: median survival time, higher = longer survival
How it was run: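 Mice carrying the transplanted tumor received test compound or vehicle. Survival was recorded in each group, and the value is the treated-group measurement divided by that of the vehicle-treated control group.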

[1] = dose: 60.0 mg/kg/injection, schedule: Q01DX005 (ip), vehicle: saline with Tween-80
[2] = dose: 120.0 mg/kg/injection, schedule: Q01DX005 (ip), vehicle: saline with Tween-80
[3] = dose: 100.0 mg/kg/injection, schedule: Q01DX001 (ip), vehicle: saline with Tween-80
[4] = dose: 200.0 mg/kg/injection, schedule: Q01DX001 (ip), vehicle: saline with Tween-80
[5] = dose: 400.0 mg/kg/injection, schedule: Q01DX001 (ip), vehicle: saline with Tween-80
[6] = dose: 12.5 mg/kg/injection, schedule: Q01DX009 (ip), vehicle: saline with Tween-80
[7] = dose: 50.0 mg/kg/injection, schedule: Q01DX009 (ip), vehicle: Klucel (hydroxypropylcellulose) (HPC)
[8] = dose: 50.0 mg/kg/injection, schedule: Q01DX009 (ip), vehicle: saline with Tween-80
[9] = dose: 12.5 mg/kg/injection, schedule: Q01DX009 (ip), vehicle: Klucel (hydroxypropylcellulose) (HPC)
[10] = dose: 25.0 mg/kg/injection, schedule: Q01DX009 (ip), vehicle: Klucel (hydroxypropylcellulose) (HPC)
[11] = dose: 60.0 mg/kg/injection, schedule: Q01DX005 (ip), vehicle: Klucel (hydroxypropylcellulose) (HPC)
[12] = dose: 120.0 mg/kg/injection, schedule: Q01DX005 (ip), vehicle: Klucel (hydroxypropylcellulose) (HPC)
[13] = dose: 240.0 mg/kg/injection, schedule: Q01DX005 (ip), vehicle: Klucel (hydroxypropylcellulose) (HPC)
[14] = dose: 100.0 mg/kg/injection, schedule: Q01DX001 (ip), vehicle: Klucel (hydroxypropylcellulose) (HPC)

Measured: T/C

O=C(CNC(=O)Nc1ccc(Cl)c(Cl)c1)N/N=C/c1ccccc1F
inactive: dose: 3.75 mg/kg/injection, schedule: Q01DX005 (ip), vehicle: saline with Tween-80 104 % of control | dose: 7.5 mg/kg/injection, schedule: Q01DX005 (ip), vehicle: saline with Tween-80 102 % of control | dose: 15.0 mg/kg/injection, schedule: Q01DX005 (ip), vehicle: saline with Tween-80 102 % of control and 93 % of control | [1] 95 % of control

CC(C)(C)c1ccc(C(=O)n2c(=S)oc3ccc(Cl)cc32)cc1
inactive: [1] 96 % of control | [2] 95 % of control | dose: 240.0 mg/kg/injection, schedule: Q01DX005 (ip), vehicle: saline with Tween-80 94 % of control

CCCn1c(Cl)c(/C=N\Nc2cccc([N+](=O)[O-])c2)c2ccccc21
inactive: [3] 91 % of control | [4] 92 % of control | [5] 91 % of control

Cc1cc(=O)oc2cc(NCS(=O)(=O)O)ccc12
inactive: dose: 50.0 mg/kg/injection, schedule: Q01DX005 (ip), vehicle: saline 100 % of control | dose: 100.0 mg/kg/injection, schedule: Q01DX005 (ip), vehicle: saline 98 % of control | dose: 200.0 mg/kg/injection, schedule: Q01DX005 (ip), vehicle: saline 97 % of control

Cn1cnc2cc(N3CCOCC3)c(N)cc2c1=O
inactive: dose: 100.0 mg/kg/injection, schedule: Q04DX002 (ip), vehicle: Klucel (hydroxypropylcellulose) (HPC) 106 % of control | dose: 200.0 mg/kg/injection, schedule: Q04DX002 (ip), vehicle: Klucel (hydroxypropylcellulose) (HPC) 102 % of control | dose: 400.0 mg/kg/injection, schedule: Q04DX002 (ip), vehicle: Klucel (hydroxypropylcellulose) (HPC) 102 % of control

S=C([S][Sn]([c]1ccccc1)([c]1ccccc1)[c]1ccccc1)N1CCOCC1
inactive: dose: 1.56 mg/kg/injection, schedule: Q01DX009 (ip), vehicle: saline with Tween-80 100 % of control | dose: 3.13 mg/kg/injection, schedule: Q01DX009 (ip), vehicle: saline with Tween-80 100 % of control and 103 % of control and 109 % of control | dose: 6.25 mg/kg/injection, schedule: Q01DX009 (ip), vehicle: saline with Tween-80 107 % of control and 108 % of control | [6] 105 % of control

[Cl][Hg][Cl]
inactive: dose: 0.94 mg/kg/injection, schedule: Q01DX005 (ip), vehicle: saline 95 % of control | dose: 1.88 mg/kg/injection, schedule: Q01DX005 (ip), vehicle: saline 101 % of control

CC(C)(C)N=C(CCN1CCN(CCC(=NC(C)(C)C)Nc2ccc([N+](=O)[O-])cc2)CC1)Nc1ccc([N+](=O)[O-])cc1
inactive: [6] 92 % of control | dose: 25.0 mg/kg/injection, schedule: Q01DX009 (ip), vehicle: saline with Tween-80 96 % of control | [7] 87 % of control | [8] 91 % of control | dose: 200.0 mg/kg/injection, schedule: Q01DX009 (ip), vehicle: Klucel (hydroxypropylcellulose) (HPC) 93 % of control

N=C(N)c1ccc(/C=C\C=C/c2cc3cc(C(=N)N)ccc3o2)cc1
inactive: dose: 1.56 mg/kg/injection, schedule: Q04DX003 (ip), vehicle: saline with Tween-80 107 % of control | dose: 3.12 mg/kg/injection, schedule: Q04DX003 (ip), vehicle: saline with Tween-80 122 % of control | dose: 3.12 mg/kg/injection, schedule: Q04DX003 (ip), vehicle: saline 115 % of control | dose: 12.5 mg/kg/injection, schedule: Q04DX003 (ip), vehicle: saline 124 % of control

CC(=O)OCCSSCCOC(C)=O
inactive: [8] 107 % of control | dose: 100.0 mg/kg/injection, schedule: Q01DX009 (ip), vehicle: saline with Tween-80 113 % of control

CC(=O)C1(C)Nc2cccc3cccc(c23)N1
inactive: dose: 50.0 mg/kg/injection, schedule: Q01DX005 (ip), vehicle: Klucel (hydroxypropylcellulose) (HPC) 100 % of control | dose: 100.0 mg/kg/injection, schedule: Q01DX005 (ip), vehicle: Klucel (hydroxypropylcellulose) (HPC) 96 % of control | dose: 200.0 mg/kg/injection, schedule: Q01DX005 (ip), vehicle: Klucel (hydroxypropylcellulose) (HPC) 101 % of control

C[N+](C)([O-])CCCNc1c2ccccc2nc2cccc([N+](=O)[O-])c12
inactive: dose: 0.79 mg/kg/injection, schedule: Q01DX009 (ip), vehicle: saline 108 % of control | dose: 1.56 mg/kg/injection, schedule: Q01DX009 (ip), vehicle: saline 110 % of control | dose: 3.12 mg/kg/injection, schedule: Q01DX009 (ip), vehicle: saline 117 % of control and 118 % of control

CCCCCCCCCCCCC[N+](C)([O-])CCCCCC[N+](C)([O-])CCCCCCCCCCCCC (centres undefined)
inactive: [9] 100 % of control | [10] 93 % of control | [7] 101 % of control and 93 % of control

C[N+]1(C)C2CCC1CC(=O)C2
inactive: dose: 12.5 mg/kg/injection, schedule: Q01DX009 (ip), vehicle: suspension in saline 107 % of control | dose: 25.0 mg/kg/injection, schedule: Q01DX009 (ip), vehicle: suspension in saline 107 % of control

Cc1ccc(N=Nc2c(C)noc2C)c(Br)c1
inactive: [11] 93 % of control | [12] 100 % of control | [13] 92 % of control

COC(=O)C1=COC(C)C2CN3CCC4(C(=O)Nc5ccccc54)C3CC12 (centres undefined)
inactive: [1] 101 % of control | [2] 101 % of control

CC(C)(C)c1cc(CO)c(Sc2c(CO)cc(C(C)(C)C)cc2CO)c(CO)c1
inactive: dose: 12.5 mg/kg/injection, schedule: Q01DX001 (ip), vehicle: saline with Tween-80 92 % of control | dose: 25.0 mg/kg/injection, schedule: Q01DX001 (ip), vehicle: saline with Tween-80 100 % of control | dose: 50.0 mg/kg/injection, schedule: Q01DX001 (ip), vehicle: saline with Tween-80 95 % of control

Cc1ccc2nc(N(C)C)[nH]c2c1
inactive: dose: 50.0 mg/kg/injection, schedule: Q01DX005 (ip), vehicle: other 105 % of control | dose: 100.0 mg/kg/injection, schedule: Q01DX005 (ip), vehicle: other 109 % of control

CS(=O)(=O)NC(=O)NC(=S)c1ccc(Br)cc1
inactive: [3] 103 % of control | [4] 101 % of control | [5] 107 % of control

N#Cc1c(Cl)cccc1N1CCSCC1
inactive: [11] 94 % of control | [12] 102 % of control | [13] 100 % of control

O=C(CCCNC(=O)OCc1ccccc1)OCc1ccc2c(c1)C(=O)c1ccccc1C2=O
inactive: [14] 89 % of control | dose: 200.0 mg/kg/injection, schedule: Q01DX001 (ip), vehicle: Klucel (hydroxypropylcellulose) (HPC) 88 % of control | dose: 400.0 mg/kg/injection, schedule: Q01DX001 (ip), vehicle: Klucel (hydroxypropylcellulose) (HPC) 86 % of control

C=C1CC23CC4C5C6(C)CC(O)CC57C(C2C(O)C1C(O)C37)N4C6 (centres undefined)
inactive: [9] 101 % of control | [10] 106 % of control | [7] 101 % of control

O=c1[nH]c(=O)c2nc(-c3ccc(Cl)c(Cl)c3)cnc2[nH]1
inactive: dose: 100.0 mg/kg/injection, schedule: Q01DX001 (ip), vehicle: saline 100 % of control | dose: 200.0 mg/kg/injection, schedule: Q01DX001 (ip), vehicle: saline 116 % of control | dose: 400.0 mg/kg/injection, schedule: Q01DX001 (ip), vehicle: saline 91 % of control

CC(=O)OCc1c(Cl)nc2n1CCS2
inactive: dose: 25.0 mg/kg/injection, schedule: Q01DX001 (ip), vehicle: Klucel (hydroxypropylcellulose) (HPC) 103 % of control | dose: 50.0 mg/kg/injection, schedule: Q01DX001 (ip), vehicle: Klucel (hydroxypropylcellulose) (HPC) 96 % of control | [14] 102 % of control

CCN(CC)c1ccc(NC(C(=O)c2ccccc2)c2ccccc2)cc1 (centres undefined)
inactive: dose: 3.12 mg/kg/injection, schedule: Q01DX005 (ip), vehicle: Klucel (hydroxypropylcellulose) (HPC) 104 % of control and 109 % of control | dose: 6.25 mg/kg/injection, schedule: Q01DX005 (ip), vehicle: Klucel (hydroxypropylcellulose) (HPC) 103 % of control and 109 % of control and 96 % of control | dose: 12.5 mg/kg/injection, schedule: Q01DX005 (ip), vehicle: Klucel (hydroxypropylcellulose) (HPC) 104 % of control and 121 % of control and 96 % of control | dose: 25.0 mg/kg/injection, schedule: Q01DX005 (ip), vehicle: Klucel (hydroxypropylcellulose) (HPC) 112 % of control and 95 % of control

CCC(=O)NC(Cc1ccc(F)cc1)C(=O)O (centres undefined)
inactive: dose: 50.0 mg/kg/injection, schedule: Q01DX009 (ip), vehicle: saline 90 % of control | dose: 100.0 mg/kg/injection, schedule: Q01DX009 (ip), vehicle: saline 88 % of control | dose: 200.0 mg/kg/injection, schedule: Q01DX009 (ip), vehicle: saline 90 % of control
